According to patent US11555009B2, “2-(substituted benzene matrix) aromatic formate FTO inhibitor, preparation method therefor, and applications thereof” (SHANGHAI INSTITUTE OF MATERIA MEDICA, CHINESE ACADEMY OF …, priority 2017, dated 2023):
Where two headings read alike, the source gives them in different places.

Legend:
[1] = test system: human bone marrow rhabdomyosarcoma cell line (RH30); assay: MTS cytotoxicity on RH30 cells; type: cell-based
Method: (§1) The following was a study of the cytotoxicity study of compound of 2-(substituted phenylhetero)aromatic formic acid of formula (I) and its derivatives as FTO inhibitors on solid tumors including human small cell lung cancer cell lines (SCLC-21H), human bone marrow rhabdomyosarcoma cell line (RH30) and pancreatic cancer cell Line (KP3):
(§2) SCLC-21H, RH30 and KP3 solid tumor cell lines were cultivated separately, and seeded at 5000 cells per well in 96 well plates. The cells were cultured until the cells were adherent, and different compounds were added and the cultivation was continued for 72 hours. 10 uL of MTS solution was directly added and the mixture was incubated for 4 h, and the absorbance was measured at 490 nm. The inhibition rate was calculated by using the DMSO group as a control.

FTO = FTO (Homo sapiens (Human), UniProt Q9C0B1); assay: FTO enzyme inhibition (m6A dsDNA substrate, DpnII digestion, gel readout); type: biochemical; conditions: for Inhibition rate: in vitro inhibition rate on FTO, compound at 50 μM
Method: High purity FTO protein was obtained by nickel column affinity chromatography purification.
After incubation at room temperature for 2 hrs, the reaction system was then slowly heated to 65° C. to inactivate, and 1 μM 39 nt of antisense strand DNA was added to anneal, thereby forming double strands. […] After Gel-Red dyeing, photos were taken with gel imaging system. The obtained band was subjected to gray scale reading to obtain inhibition rate.

[2] = test system: human small cell lung cancer cell lines (SCLC-21H); assay: MTS cytotoxicity on SCLC-21H cells; type: cell-based; conditions: for IC50: read-out: Cytotoxicity on cell line SCLC (IC50)
Method: as §1, §2

[3] = test system: pancreatic cancer cell Line (KP3); assay: MTS cytotoxicity on KP3 cells; type: cell-based
Method: as §1, §2

Chain of FTO (Q9C0B1 whole entry): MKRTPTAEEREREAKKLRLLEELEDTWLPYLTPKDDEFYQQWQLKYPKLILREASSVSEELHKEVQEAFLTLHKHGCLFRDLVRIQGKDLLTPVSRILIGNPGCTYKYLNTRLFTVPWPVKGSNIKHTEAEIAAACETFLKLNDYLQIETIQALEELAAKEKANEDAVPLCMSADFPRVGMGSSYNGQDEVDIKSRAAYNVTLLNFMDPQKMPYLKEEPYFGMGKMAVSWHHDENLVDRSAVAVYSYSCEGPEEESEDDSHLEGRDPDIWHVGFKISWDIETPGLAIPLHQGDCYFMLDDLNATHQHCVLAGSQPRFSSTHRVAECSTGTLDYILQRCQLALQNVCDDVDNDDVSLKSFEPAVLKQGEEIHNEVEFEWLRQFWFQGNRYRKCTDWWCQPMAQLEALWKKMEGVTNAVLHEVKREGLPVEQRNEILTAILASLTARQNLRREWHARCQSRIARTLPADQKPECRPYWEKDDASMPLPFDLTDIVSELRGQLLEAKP

IC50 (FTO) [nM] | Inhibition rate (FTO) [%] | inhibition at 50 µM (FTO; read-out: Inhibition rate) [%] | Compound | IC50 [1] [µM] | Inhibition rate (human bone marrow rhabdomyosarcoma cell RH30) ([1]; 50 μM, 72 h) [%] | Inhibition rate (human small cell lung cancer SCLC-21H) ([2]; 50 μM, 72 h) [%] | IC50 [2] [µM] | IC50 [3] [nM] | IC50 ([1]; Homo sapiens, Rh30) [µM] | inhibition at 50 µM ([1]; Homo sapiens, Rh30, 50 μM, 72 h, read-out: Inhibition rate (human bone marrow rhabdomyosarcoma cell RH30)) [%] | inhibition at 50 µM ([2]; Homo sapiens, SCLC-21H, 50 μM, 72 h, read-out: Inhibition rate (human small cell lung cancer SCLC-21H)) [%] | IC50 ([2]; Homo sapiens, SCLC-21H) [µM] | IC50 ([3]; Pancreatic cancer cell) [nM]
< 1000 | 63 |  | O=C(NO)c1ccccc1Nc1c(Cl)cc(-c2cn[nH]c2)cc1Cl [Compound 33] | 4.1 | 86 | 83 | 7.1 | 2200 |  |  |  |  | 
< 5000 | 70 |  | Cc1n[nH]cc1-c1cc(Cl)c(Nc2ccccc2C(=O)NO)c(Cl)c1 [Compound 31] | 3.6 | 70 | 75 | 7.2 | 6200 |  |  |  |  | 
< 1000 |  | 46 | Cc1noc(C)c1-c1cc(Cl)c(Nc2ccccc2C(=O)NO)c(Cl)c1 [Compound 25] |  |  |  |  |  | 2.9 | 75 | 78 | 2.4 | 2900
< 1000 | 90 |  | Cc1noc(C)c1-c1cc(F)c(Nc2ccccc2C(=O)NO)c(F)c1 [Compound 39] | 3.2 |  |  | 7.3 | 2600 |  |  |  |  | 
 | 29 |  | Cc1noc(C)c1-c1cc(Cl)c(Nc2ccccc2C(=O)NCCCN2CCOCC2)c(Cl)c1 [Compound 82] | 1.6 |  |  | 9.9 | < 1000 |  |  |  |  | 
 | 29 |  | Cc1noc(C)c1-c1cc(Cl)c(Nc2ccccc2C(=O)NCCN2CCN(C)CC2)c(Cl)c1 [Compound 80] | 2 | 82 | 86 | < 1 | 2000 |  |  |  |  | 
 |  |  | Cc1n[nH]c(C)c1-c1cc(Cl)c(Nc2ccccc2C(=O)NO)c(Cl)c1 [Compound 32] | 5.3 | 63 | 70 | 2.1 | 5600 |  |  |  |  | 
 | 67 |  | CCN(CC)CCNC(=O)c1ccccc1Nc1c(Cl)cc(-c2cn[nH]c2)cc1Cl [Compound 81] | 1.3 | 80 | 83 | 9.2 | < 1000 |  |  |  |  | 
< 1000 | 100 |  | Cc1noc(C)c1-c1cc(F)c(Nc2ccccc2C(=O)O)c(F)c1 [Compound 38] | 9.2 |  |  | 4.2 | < 1000 |  |  |  |  | 
